Measurements published in the NIST ThermoML archive (doi:10.1021/je700131z).
± gives the expanded uncertainty stated by the source.

Settings: Crystal; visual observation

Question: Which Normal melting temperature does the source give for `OC[C@@H](O)[C@H](O)[C@@H](O)CO` [xylitol] here?
Answer: 94.50 ± 1.1 °C
